Consider 3 compounds from patent US20260365677A1, “NEW CONTRAST AGENTS FOR USE IN DIAGNOSTIC IMAGING” (Bayer Aktiengesellschaft, priority 2022, published 2026).

Molecules are shown by their SMILES.

The nature of data set [1]: Relaxivity measurements at 1.41 T in water and human plasma. The data set is classed as physicochemical. The conditions noted are these: 37 °C, normalized to Gd. Here is the method:
Relaxivity measurements at 1.41 T were performed using a MiniSpec mq60 spectrometer (Bruker Analytik, Karlsruhe, Germany) operating at a resonance frequency of 60 MHz and a temperature of 37 °C. The T1 relaxation times were determined using the standard inversion recovery (IR) method with a fixed relaxation delay of at least 5×T1. The variable inversion time (TI) was calculated automatically by the standard software of the MiniSpec mq60 (8 steps). The T2 measurements were performed by using a Carr-Purcell-Meiboom-Gill (CPMG) pulse sequence, applying a relaxation delay of at least 5×T1.
Each relaxivity measurement was performed using three different Gd concentrations (3 concentrations between 0.05 and 2 mM). The T1 and T2 relaxation times of the example compounds 1 to 10 were measured in different media for example in water and human plasma. Human plasma preparation: For each experiment fresh blood was taken from a volunteer using 10 mL citrate-tubes (Sarstedt S-Monovette 02.1067.001, 10 mL, Citrate). The 10 mL citrate-tubes were carefully inverted 10 times to mix blood and anticoagulant and centrifuged for 15 min at 1811 g at RT (Eppendorf, Centrifuge 5810R).
The relaxivities ri (where i=1, 2) were calculated based on the measured relaxation rates R, in water and plasma:
where Ri(0) represent the relaxation rate of the respective solvent and CGd the concentration of the compound normalized to the Gadolinium. The Gadolinium concentrations of the investigated solutions were verified by Inductively Coupled Plasma Mass Spectrometry (ICP-MS Agilent 7500a, Waldbronn, Germany).

Another data set has as its target T1, OATP1B3 (Homo sapiens, UniProt Q9NPD5).
T1 construct: expressed in transfected cells
T1 sequence (Q9NPD5 1-702): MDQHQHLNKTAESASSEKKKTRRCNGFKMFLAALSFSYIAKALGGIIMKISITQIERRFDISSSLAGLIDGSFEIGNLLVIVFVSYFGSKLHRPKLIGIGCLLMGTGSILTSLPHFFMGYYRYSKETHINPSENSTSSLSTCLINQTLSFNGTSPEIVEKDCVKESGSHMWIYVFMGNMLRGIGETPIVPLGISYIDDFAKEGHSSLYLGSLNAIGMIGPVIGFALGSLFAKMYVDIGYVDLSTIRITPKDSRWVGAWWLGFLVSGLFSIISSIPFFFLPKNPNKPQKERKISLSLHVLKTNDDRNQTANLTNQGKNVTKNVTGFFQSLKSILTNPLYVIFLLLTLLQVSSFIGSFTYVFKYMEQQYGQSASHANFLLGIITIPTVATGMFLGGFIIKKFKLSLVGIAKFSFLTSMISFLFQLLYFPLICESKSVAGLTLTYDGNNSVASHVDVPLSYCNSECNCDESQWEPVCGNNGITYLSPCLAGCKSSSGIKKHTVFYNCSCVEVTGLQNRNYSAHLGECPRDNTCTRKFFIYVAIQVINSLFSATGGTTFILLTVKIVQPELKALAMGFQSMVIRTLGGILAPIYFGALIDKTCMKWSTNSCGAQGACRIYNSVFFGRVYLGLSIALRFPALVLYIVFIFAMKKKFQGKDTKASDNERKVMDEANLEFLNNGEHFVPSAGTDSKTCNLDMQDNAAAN
The data set can be described thus: Uptake into stable transfected OATP1B3 HEK 293 cells. The data set is classed as cell-based. Conditions: 100 μM, 40 min, relative to RC1 (Gd-EOB-DTPA). Here is the method:
Human transfected OATP1B3 human embryonic kidney 293 cells (OATP1B3 HEK 293, SLCO1B3, Entrez Gene ID: 28234) were used (Leonhardt M et al. Drug Metab Dispos. 2010 July; 38(7):1024-8). The following culture medium was used: 500 mL DMEM (Dulbecco's Modified Eagle Medium—high Glucose, D6429), 50 mL FCS (fetal bovine serum, Fa. Sigma, F7524), 5.8 mL G418 (Geneticin, Fa. Gibco 10131-027) and 5 mL Pen-Strep. (Penicillin-Streptomycin, Fa. Gibco, Ref 15140-122). Cryopreserved cells were shortly thawed in water bath and diluted in 10 mL warm culture medium (37 °C). After medium change the cells were grown for 3d in a 25 cm^2 cell culture flask. After 3 to 5d the cells were transferred into 75 cm^2 flasks. For the splitting of cells these were incubated with 1.5 mL trypsin (Trypsin-EDTA (1×) 0.05%, Ref 25300-054 100 ml, Fa. Gibco) for 3-5 min in the incubator (37 °C, 5% CO2 and 95% oxygen). After centrifugation and washing with medium the cells were counted (50 μL cell suspension and 50 μL trypan blue (Trypan Blue Solution, 93595-50 ml, Fa. Fluka). Cells were cultured (1×10^5 cells/well) in poly-D-lysine coated 24-well plates (Fa. Corning, Ref: 354414) in 1.5 mL medium per well. After 48 hours in the incubator the medium was changed and 1.5 mL/well sodium butyrate containing medium were added (40 mL culture medium plus 400 μL Na-Butyrate, Fa. Sigma Aldrich B5887-5G, 250 mg in 2.27 mL MilliQ water). After 24 hours in the incubator the medium was vacuumed off and 1.5 mL transport buffer was added and incubated for 10 min. The transport buffer contains the following ingredients: 500 mL HBSS (Hank's balanced salt solution, Hyclone, SH30268.01), 5 mL HEPES buffer (4-(2-hydroxyethyl)-1-piperazine-ethanesulfonic acid, Gibco 15630-056) and 3.9 mL glucose (Sigma, G8270-100, 90 g/200 mL MilliQ water). All test items were prepared in transport buffer at a final concentration of 100 μM from stock solutions (180 to 500 mM concentration). The OATP1B3 HEK 293 cells were incubated with test solutions (test item in transport buffer 500 μL) for 40 min on a thermoshaker without shaking (PHMP, Fa. Grant Bio). Triplicates were performed for each test item. After incubation the cells were washed with 2 mL of cold PBS (+) buffer (Dulbeccos PBS+, Fa. Gibco). […] As a reference standard Gd-EOB-DTPA (gadoxetate) is used in the same well plate. The OATP1B3 HEK 293 uptake of the test compound is calculated relative to gadoxetate (resulting in the unit % of RC1).

The nature of data set [2]: Partition coefficient (log P butanol/buffer). The data set is classed as physicochemical. The conditions noted are these: 50 mM Tris-HCl, pH 7.4, 10 μM, room temperature. Here is the method:
The partition coefficient P (log P=log(Cbutanol/Cbuffer)) was determined in buffered aqueous solution (10 μM of compound in 0.5 mL 50 mM Tris-HCl saturated with Butanol, pH 7.4) and 1-butanol 1+1 and the mixture was shaken for 2 h at room temperature (n=3). The Gd-concentrations in each phase. CObutano, and Cbuffer were measured by ICP-MS (The Chemistry of Contrast Agents in Medical Magnetic Resonance Imaging” 2nd Ed. Merbach A S, Helm L, Toth E, eds. Hoboken, NJ: Wiley 2013).

For the compound `COCCOCCOCCOc1ccc(C[C@@H]2CN(CC(=O)[O-])CCN(CC(=O)[O-])CCN(CC(=O)O)CCN2CC(=O)[O-])cc1.[Gd+3]` [Example 3, Gadolinium-2,2′,2″-[(2R)-10-(carboxymethyl)-2-(4-{2-[2-(2-methoxyethoxy)ethoxy]ethoxy}benzyl)-1,4,7,10-tetraazacyclododecane-1,4,7-triyl]triacetate], in data set [1], the r1 human plasma worked out at 6.8 L/mmol/s and the r1 water came to 5.0 L/mmol/s. Further, the “Uptake into OATP1B3-HEK 293 cells” value on OATP1B3 was 28 % of RC1. The “Log P” value in data set [2] was −2.05.
In data set [1], `CCOCCOCCOc1ccc(C[C@H]2CN(CC(=O)[O-])CCN(CC(=O)[O-])CCN(CC(=O)O)CCN2CC(=O)[O-])nc1.[Gd+3]` [Example 6, Gadolinium 2,2′,2″-[(2S)-10-(carboxymethyl)-2-({5-[2-(2-ethoxyethoxy)ethoxy]pyridin-2-yl}methyl)-1,4,7,10-tetraazacyclododecane-1,4,7-triyl]triacetate] registered a r1 human plasma of 5.9 L/mmol/s and a r1 water of 5.3 L/mmol/s. Also, the “Uptake into OATP1B3-HEK 293 cells” value at OATP1B3 is 32 % of RC1. The “Log P” value in data set [2] is −1.96.
Consider `CCOc1ccc(C[C@H]2CN(CC(=O)[O-])CCN(CC(=O)[O-])CCN(CC(=O)O)CCN2CC(=O)[O-])cc1.[Gd+3]` (single isomer, unassigned; stereoisomer 2) [Example 11], for which, in data set [1], the r1 human plasma came out at 6.2 L/mmol/s and the r1 water amounted to 4.4 L/mmol/s. Also, the “Uptake into OATP1B3-HEK 293 cells” value on OATP1B3 was 32 % of RC1. Also, the “Log P” value in data set [2] was −1.37.

As usually defined, the Log P is a log measure of how a compound divides between an organic and an aqueous phase. Low readings indicate lower lipophilicity, high ones higher lipophilicity.
